Measured values reported in the supplement of paper PMC10307832.

Tests used:
Experiment in all cases: relative viability (nuclei count vs DMSO), 5 days (fraction); higher = more cells survive
ABC-1 = tested on: ABC-1
Summary of the method: (§1)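 Five library-drug doses in √10 steps were combined with a fixed anchor-drug dose, or a single drug was given alone, by pin tool to lung cancer cell lines in 1536-well plates the day after seeding. Nuclei were stained and counted after 5 days. Relative viability is the nuclei count in treated wells over that in vehicle wells, taken as the median of duplicate plates.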

CAL-12T = tested on: CAL-12T
Summary of the method: as §1

COR-L 105 = tested on: COR-L 105
Summary of the method: as §1

ChaGo-K-1 = tested on: ChaGo-K-1
Summary of the method: as §1

EKVX = tested on: EKVX
Summary of the method: as §1

EPLC-272H = tested on: EPLC-272H
Summary of the method: as §1

H3255 = tested on: H3255
Summary of the method: as §1

HCC-366 = tested on: HCC-366
Summary of the method: as §1

HCC-827 = tested on: HCC-827
Summary of the method: as §1

NCI-H1355 = tested on: NCI-H1355
Summary of the method: as §1

NCI-H1792 = tested on: NCI-H1792
Summary of the method: as §1

NCI-H1975 = tested on: NCI-H1975
Summary of the method: as §1

NCI-H1993 = tested on: NCI-H1993
Summary of the method: as §1

NCI-H2009 = tested on: NCI-H2009
Summary of the method: as §1

NCI-H2085 = tested on: NCI-H2085
Summary of the method: as §1

NCI-H2087 = tested on: NCI-H2087
Summary of the method: as §1

NCI-H2228 = tested on: NCI-H2228
Summary of the method: as §1

NCI-H322M = tested on: NCI-H322M
Summary of the method: as §1

NCI-H441 = tested on: NCI-H441
Summary of the method: as §1

NCI-H460 = tested on: NCI-H460
Summary of the method: as §1

SK-MES-1 = tested on: SK-MES-1
Summary of the method: as §1

Cc1csc(=NC2CCCCC2)n1/N=C/c1ccc(O)c(O)c1O [MIM1] + CS(=O)(=O)N1CCN(Cc2cc3nc(-c4cccc5[nH]ncc45)nc(N4CCOCC4)c3s2)CC1 [Pictilisib] (partner 1 µM) was tested, and the relative viability (ABC-1; first compound 0.2 µM) was 0.547, the relative viability (ABC-1; first compound 0.6325 µM) was 0.852 and the relative viability (ABC-1; first compound 2 µM) was 0.722. The relative viability (ABC-1; first compound 6.325 µM) was 0.286, the relative viability (ABC-1; first compound 20 µM) was 0.286 and the relative viability (CAL-12T; first compound 0.2 µM) was 0.394. For the same molecule, the relative viability (CAL-12T; first compound 2 µM) was 0.473, the relative viability (CAL-12T; first compound 6.325 µM) was 0.453 and the relative viability (CAL-12T; first compound 20 µM) was 0.233. It also gave a relative viability (COR-L 105; first compound 0.2 µM) of 0.424, a relative viability (COR-L 105; first compound 0.6325 µM) of 0.366 and a relative viability (COR-L 105; first compound 2 µM) of 0.344. For the same molecule, the relative viability (COR-L 105; first compound 6.325 µM) was 0.384, the relative viability (COR-L 105; first compound 20 µM) was 0.291 and the relative viability (ChaGo-K-1; first compound 0.2 µM) was 0.876. The relative viability (ChaGo-K-1; first compound 0.6325 µM) was 0.629, the relative viability (ChaGo-K-1; first compound 2 µM) was 0.863 and the relative viability (ChaGo-K-1; first compound 6.325 µM) was 0.644. For the same molecule, the relative viability (ChaGo-K-1; first compound 20 µM) was 0.265, the relative viability (EKVX; first compound 0.2 µM) was 0.477 and the relative viability (EKVX; first compound 0.6325 µM) was 0.365. It also gave a relative viability (EKVX; first compound 2 µM) of 0.463, a relative viability (EKVX; first compound 6.325 µM) of 0.322 and a relative viability (EKVX; first compound 20 µM) of 0.351. For the same molecule, the relative viability (EPLC-272H; first compound 0.2 µM) was 0.355, the relative viability (EPLC-272H; first compound 0.6325 µM) was 0.339 and the relative viability (EPLC-272H; first compound 2 µM) was 0.334. It also gave a relative viability (EPLC-272H; first compound 6.325 µM) of 0.3, a relative viability (EPLC-272H; first compound 20 µM) of 0.235 and a relative viability (H3255; first compound 0.2 µM) of 0.429. The relative viability (H3255; first compound 0.6325 µM) was 0.54, the relative viability (H3255; first compound 2 µM) was 0.459 and the relative viability (H3255; first compound 6.325 µM) was 0.478. For the same molecule, the relative viability (H3255; first compound 20 µM) was 0.416, the relative viability (HCC-366; first compound 0.2 µM) was 0.166 and the relative viability (HCC-366; first compound 0.6325 µM) was 0.153. It also gave a relative viability (HCC-366; first compound 2 µM) of 0.122, a relative viability (HCC-366; first compound 6.325 µM) of 0.183 and a relative viability (HCC-366; first compound 20 µM) of 0.0561. The relative viability (HCC-827; first compound 0.2 µM) was 0.985, the relative viability (HCC-827; first compound 0.6325 µM) was 0.936 and the relative viability (HCC-827; first compound 2 µM) was 0.947. For the same molecule, the relative viability (HCC-827; first compound 6.325 µM) was 0.618, the relative viability (HCC-827; first compound 20 µM) was 0.664 and the relative viability (NCI-H1355; first compound 0.2 µM) was 0.402. The relative viability (NCI-H1355; first compound 0.6325 µM) was 0.392, the relative viability (NCI-H1355; first compound 2 µM) was 0.435 and the relative viability (NCI-H1355; first compound 6.325 µM) was 0.376. It also gave a relative viability (NCI-H1355; first compound 20 µM) of 0.234, a relative viability (NCI-H1792; first compound 0.2 µM) of 0.296 and a relative viability (NCI-H1792; first compound 0.6325 µM) of 0.293. The relative viability (NCI-H1792; first compound 2 µM) was 0.26, the relative viability (NCI-H1792; first compound 6.325 µM) was 0.252 and the relative viability (NCI-H1792; first compound 20 µM) was 0.221. The relative viability (NCI-H1975; first compound 0.2 µM) was 0.275, the relative viability (NCI-H1975; first compound 0.6325 µM) was 0.312 and the relative viability (NCI-H1975; first compound 2 µM) was 0.251. The relative viability (NCI-H1975; first compound 6.325 µM) was 0.209, the relative viability (NCI-H1975; first compound 20 µM) was 0.312 and the relative viability (NCI-H1993; first compound 0.2 µM) was 0.829. It also gave a relative viability (NCI-H1993; first compound 0.6325 µM) of 0.92, a relative viability (NCI-H1993; first compound 2 µM) of 0.827 and a relative viability (NCI-H1993; first compound 6.325 µM) of 0.776. It also gave a relative viability (NCI-H1993; first compound 20 µM) of 0.764, a relative viability (NCI-H2009; first compound 0.2 µM) of 0.931 and a relative viability (NCI-H2009; first compound 0.6325 µM) of 0.812. The relative viability (NCI-H2009; first compound 2 µM) was 0.85, the relative viability (NCI-H2009; first compound 6.325 µM) was 0.582 and the relative viability (NCI-H2009; first compound 20 µM) was 0.173. It also gave a relative viability (NCI-H2085; first compound 0.2 µM) of 0.441, a relative viability (NCI-H2085; first compound 0.6325 µM) of 0.431 and a relative viability (NCI-H2085; first compound 2 µM) of 0.518. It also gave a relative viability (NCI-H2085; first compound 6.325 µM) of 0.461, a relative viability (NCI-H2085; first compound 20 µM) of 0.631 and a relative viability (NCI-H2087; first compound 0.2 µM) of 0.959. It also gave a relative viability (NCI-H2087; first compound 0.6325 µM) of 0.588, a relative viability (NCI-H2087; first compound 2 µM) of 0.969 and a relative viability (NCI-H2087; first compound 6.325 µM) of 0.584. It also gave a relative viability (NCI-H2087; first compound 20 µM) of 0.315, a relative viability (NCI-H2228; first compound 0.2 µM) of 0.435 and a relative viability (NCI-H2228; first compound 0.6325 µM) of 0.316. The relative viability (NCI-H2228; first compound 2 µM) was 0.4, the relative viability (NCI-H2228; first compound 6.325 µM) was 0.244 and the relative viability (NCI-H2228; first compound 20 µM) was 0.158. It also gave a relative viability (NCI-H322M; first compound 0.2 µM) of 0.565, a relative viability (NCI-H322M; first compound 0.6325 µM) of 0.497 and a relative viability (NCI-H322M; first compound 2 µM) of 0.511. The relative viability (NCI-H322M; first compound 6.325 µM) was 0.477, the relative viability (NCI-H322M; first compound 20 µM) was 0.698 and the relative viability (NCI-H441; first compound 0.2 µM) was 0.541. The relative viability (NCI-H441; first compound 0.6325 µM) was 0.468, the relative viability (NCI-H441; first compound 2 µM) was 0.539 and the relative viability (NCI-H441; first compound 6.325 µM) was 0.382. For the same molecule, the relative viability (NCI-H441; first compound 20 µM) was 0.147, the relative viability (NCI-H460; first compound 0.2 µM) was 0.315 and the relative viability (NCI-H460; first compound 0.6325 µM) was 0.348. The relative viability (NCI-H460; first compound 2 µM) was 0.249, the relative viability (NCI-H460; first compound 6.325 µM) was 0.329 and the relative viability (NCI-H460; first compound 20 µM) was 0.274. For the same molecule, the relative viability (SK-MES-1; first compound 0.2 µM) was 0.358, the relative viability (SK-MES-1; first compound 0.6325 µM) was 0.346 and the relative viability (SK-MES-1; first compound 2 µM) was 0.388. For the same molecule, the relative viability (SK-MES-1; first compound 6.325 µM) was 0.283 and the relative viability (SK-MES-1; first compound 20 µM) was 0.252.
